The values below come from US20210040041A1, “QUINOLINE DERIVATIVES AND PREPARATION METHODS AND USES THEREOF” (DONGGUAN HEC PESTICIDES R&D CO., LTD., priority 2018, published 2021).

Common to all, as to assay type: in vivo
Series [1] deals with Diamondback moth. Nature of the series: Test examples 3: leaf dipping method, cabbage, Diamondback moth. The settings on record: for mortality at 12.5 µg/mL / mortality at 25 µg/mL / mortality at 50 µg/mL: Plutella xylostella, foliar, 72 h, after 3 days, read-out: The mortality rate (%) to Diamondback moth; for mortality at 12.5 µg/mL: 12.5 mg/L; for mortality at 25 µg/mL: 25 mg/L; for mortality at 50 µg/mL: 50 mg/L. As for the experimental part:
(§1) A certain amount of compound (0.0001 g) was weighed by using an analytical balance, and prepared to a mother liquid (1) with N,N-dimethylformamide containing 1% Tween-80 emulsifier, and then the other liquid was diluted with distilled water or standby.
(§2) Leaf dipping method: an appropriate amount of cabbage was infiltrated in the prepared liquid and dried in the shade naturally, and then placed in a culture dish with filter paper; Armyworm/Diamondback moth larvae in the 2-3rd instar were inoculated, 10 heads per dish, and the dishes were cultured in an observation room at 24-27° C. The results were investigated after 3 days. […] The test concentrations were 50 mg/L, 25 mg/L, 12.5 mg/L, 6.25 mg/L, 3.13 mg/L, 1.56 mg/L.

Series [2] deals with Armyworm. Nature of the series: Test examples 3: leaf dipping method, cabbage, Armyworm. As for the experimental part:
as §1, §2

Series [3] relates to Armyworm. Nature of the series: Test examples 1: leaf dipping method, corn leaves, Armyworm. The settings on record: Mythimna separata, foliar, 72 h; 200 mg/L, third instar larvae, after 3 days; read-out: mortality rate to Armyworm. How it is done:
(§3) A certain amount of compound (0.0001 g) was weighed by using an analytical balance, and prepared to a mother liquid (1) with N,N-dimethylformamide containing 1% Tween-80 emulsifier, and then the mother liquid was diluted with distilled water for standby.
Leaf dipping method: the test target was Armyworm. An appropriate amount of corn leaves were infiltrated in the prepared liquid and dried in the shade naturally, and then placed in a culture dish with filter paper; armyworm larvae in the third instar were inoculated to the corn leaves, 10 heads per dish, and the dishes were cultured in an observation room at 24-27° C. The results were investigated after 3 days. […] The test concentration was 200 mg/L.

Series [4] relates to Diamondback moth. Nature of the series: Test examples 1: leaf dipping method, cabbage leaves, Diamondback moth. To be noted: Plutella xylostella, foliar, 72 h; 200 mg/L, third instar, after 3 days; read-out: mortality rate to Diamondback moth. How it is done: as §3
(§4) Leaf dipping method: the test targets were Diamondback moth, Tobacco Cutworm and Beet Armyworm. An appropriate amount of cabbage leaves were infiltrated in the prepared liquid and dried in the shade naturally, and then placed in a culture dish with filter paper; worms in the third instar were inoculated to the leaves, 10 heads per dish, and the dishes were cultured in an observation room at 24-27° C. The results were investigated after 3 days. […] The test concentration was 200 mg/L or 100 mg/L.

Series [5] relates to Beet Armyworm. Nature of the series: Test examples 1: leaf dipping method, cabbage leaves, Beet Armyworm. To be noted: Spodoptera exigua, foliar, 72 h; 100 mg/L, third instar, after 3 days; read-out: mortality rate to Beet Armyworm. How it is done:
as §3, §4

Another series has as its system Tobacco Cutworm. Nature of the series: Test examples 1: leaf dipping method, cabbage leaves, Tobacco Cutworm. To be noted: foliar, 72 h; 100 mg/L, third instar, after 3 days; read-out: mortality rate to Tobacco Cutworm. How it is done: as §3, §4
In another series the test system is Brown rice planthopper. Nature of the series: Test examples 1: spraying leaves and stems, rice seedlings, Brown rice planthopper. The settings on record: 500 mg/L, after 72 hours; read-out: mortality rate to Brown rice planthopper. How it is done:
as §3
Spraying Leaves and Stems: the test target was Brown rice planthopper. Rice seedlings inoculated with Brown rice planthopper were spayed under Potter spray tower, and then the Brown rice planthopper was placed and cultured in an observation room at 24-27° C. The results were investigated after 72 hours. The test concentration was 500 mg/L.

For the next series, the system named is Aphis medicaginis. Nature of the series: Test examples 1: leaves dish spraying, Vicia faba leaves, Aphis medicaginis. The settings on record: 500 mg/L, after 48 hours, read-out: mortality rate to Aphis medicaginis. As for the experimental part: as §3
Leaves Dish Spraying: the test targets were tetranychuscinnabarinus and Aphis craccivora Koch. Vicia faba leaves inoculated with Carmine Spider Mite and Aphis medicaginis were spayed under Potter spray tower, and then the Carmine Spider Mite was placed and cultured in anobservation room at 24-27° C.; the Aphis medicaginis was placed and cultured in an observation room at 20-22° C. The results were investigated after 48 hours. […] The test concentration was 500 mg/L.

Series [6] has as its system Diamondback moth. Nature of the series: Test examples 2: leaf dipping method, Diamondback moth. The settings on record: Plutella xylostella, foliar, 72 h, after 3 days, read-out: The mortality rate (%) of the compound to Diamondback moth; for mortality at 12.5 µg/mL: 12.5 mg/L; for mortality at 25 µg/mL: 25 mg/L; for mortality at 50 µg/mL: 50 mg/L. As for the experimental part: (§5) A certain amount of compound (0.0001 g) was weighed by using an analytical balance, and prepared to a mother liquid (1%) with N, N-dimethylformamide containing 1% Tween-80 emulsifier, and then the mother liquid was diluted with distilled water for standby.
(§6) Leaf dipping method: an appropriate amount of corn leaves/cabbage/cowpea were infiltrated in the prepared liquid and dried in the shade naturally, and then placed in a culture dish with filter paper; armyworm/Diamondback moth/Beet Armyworm larvae in the 2-3rd instar were inoculated to the corn leaves, 10 heads per dish, and the dishes were cultured in an observation room at 24-27° C. The results were investigated after 3 days. […] The test concentrations were 50 mg/L, 25 mg/L, 12.5 mg/L, 6.25 mg/L, 3.13 mg/L, 1.56 mg/L.

Series [7] relates to Armyworm. Nature of the series: Test examples 2: leaf dipping method, Armyworm. The settings on record: Mythimna separata, foliar, 72 h, after 3 days, read-out: The mortality rate (%) of the compound to Armyworm; for mortality at 12.5 µg/mL: 12.5 mg/L; for mortality at 25 µg/mL: 25 mg/L; for mortality at 50 µg/mL: 50 mg/L. As for the experimental part: as §5, §6
Series [8] deals with Beet Armyworm. Nature of the series: Test examples 2: leaf dipping method, Beet Armyworm. To be noted: Spodoptera exigua, foliar, 72 h, after 3 days, read-out: The mortality rate (%) of the compound to Beet Armyworm; for mortality at 12.5 µg/mL: 12.5 mg/L; for mortality at 25 µg/mL: 25 mg/L; for mortality at 50 µg/mL: 50 mg/L. As for the experimental part: as §5, §6
Series [9] concerns Frankliniella occidentalis. Nature of the series: Test examples 2: spraying of cowpea leaf discs, Frankliniella occidentalis. The settings on record: foliar, 24 h, after 1 day, read-out: The mortality rate (%) of the compound to Frankliniella occidentalis; for mortality at 5 µg/mL: 5 mg/L; for mortality at 10 µg/mL: 10 mg/L; for mortality at 20 µg/mL: 20 mg/L. As for the experimental part:
as §5
Spraying: cowpea leaves growing uniformity were punched with a punching bear to make leaf discs, leaf discs were placed onto degreased cotton blocks in a dish, two leaf discs per dish, and water was added into the dish and it was flush with the leaf discs, and the dish was for standby. Frankliniella occidentalis in the 2-3rd instar were inoculated to the ready leaf discs, more than 15 per disc. Which were spayed under Potter spray tower at a dose of 0.5 mL per treatment. The blank control was treated first, and then the above operations were repeated in the order of the test dose from low to high, with 2 repeats per treatment. After treatment, the samples were placed in the observation room, and the results were investigated 1 day later. […] The test concentrations were 20 mg/L, 10 mg/L, 5.0 mg/L, 2.5 mg/L, 1.25 mg/L, 0.625 mg/L.

Regarding `CCc1nc2cc(C)c(Oc3ccc(OC(F)(F)F)cc3)c(C)c2c(O)c1C` [compound (42), 2-ethyl-3,5,7-trimethyl-6-(4-(trifluoromethoxy)phenoxy)quinolin-4-ol], in the series on Diamondback moth [1], the mortality at 12.5 µg/mL turned out to be 100%, the mortality at 25 µg/mL is 100% and the mortality at 50 µg/mL was determined as 100%. For the same compound, in the series on Diamondback moth [1] (in words, different doses), the “control effect on Diamondback moth” value is “significant control effect”. In the series on Armyworm [2] (in words, different doses), the “control effect on Armyworm” value is given as “significant control effect”.

On to `CCc1nc2cc(C)c(Oc3ccc(OC(F)(F)F)cc3)cc2c(O)c1C` [compound NO. 119, reference compound], for which the mortality at 12.5 µg/mL was found to be 70% in the series with Diamondback moth [1] and 10% in the series on Armyworm [2] (Mythimna separata, foliar, 72 h, 12.5 mg/L, after 3 days, read-out: The mortality rate (%) to Armyworm). The mortality at 25 µg/mL is 90% with Diamondback moth [1] and 50% with Armyworm [2] (Mythimna separata, foliar, 72 h, 25 mg/L, after 3 days, read-out: The mortality rate (%) to Armyworm). Also, the mortality at 50 µg/mL in the series on Diamondback moth [1] is 100%; in the series on Armyworm [2] (Mythimna separata, foliar, 72 h, 50 mg/L, after 3 days, read-out: The mortality rate (%) to Armyworm), 60%.

With `CCc1nc2cc(C)c(Oc3ccc(OC(F)(F)F)cc3)cc2c(OC(=O)OCCOC)c1C` [Example 1, 2-ethyl-3,7-dimethyl-6-(4-(trifluoromethoxy)phenoxy)quinolin-4-yl (2-methoxyethyl)carbonate], the mortality at 200 µg/mL in the series on Armyworm [3] and in the series on Diamondback moth [4] was 100% each time. Besides, the mortality at 100 µg/mL in the series with Beet Armyworm [5] and in the series on Tobacco Cutworm was 100% each time. The mortality at 500 µg/mL with Brown rice planthopper and in the series with Aphis medicaginis was 100% throughout. Besides, the mortality at 12.5 µg/mL was determined as 100% in the series with Diamondback moth [6], 100% with Armyworm [7] and 90% in the series on Beet Armyworm [8]. Also, the mortality at 25 µg/mL in the series with Diamondback moth [6], with Armyworm [7] and with Beet Armyworm [8] was 100% each time. Further, the mortality at 50 µg/mL in the series with Diamondback moth [6], in the series with Armyworm [7] and in the series on Beet Armyworm [8] was 100% throughout. Further, the mortality at 5 µg/mL in series [9] worked out at 100%. For the same compound, in series [9], the mortality at 10 µg/mL came out at 100%. Also, the mortality at 20 µg/mL in [9] was 100%.

For “2-ethyl-3,5,7-trimethyl-6-(4-(trifluoromethoxy)phenoxy)quinolin-4-ol [compound (42)]”, the “The mortality rate (%) to Armyworm” value is 80% in the series with Armyworm [2] (12.5 mg/L, after 3 days); 85% in the series with Armyworm [2] (25 mg/L, after 3 days); 95% in the series on Armyworm [2] (50 mg/L, after 3 days).

As to `CCc1nc2cc(C)c(Oc3ccc(OC(F)(F)F)cc3)cc2c(OC(=O)OCC2CCCO2)c1C` (centres unmarked) [Example 8], in the series with Diamondback moth [6], the mortality at 12.5 µg/mL was determined as 93%, the mortality at 25 µg/mL was 100% and the mortality at 50 µg/mL stood at 100%. Also, in the series on Armyworm [7], the mortality at 12.5 µg/mL was found to be 100%, the mortality at 25 µg/mL worked out at 100% and the mortality at 50 µg/mL was found to be 100%. Also, in the series with Beet Armyworm [8], the mortality at 12.5 µg/mL is 70%, the mortality at 25 µg/mL turned out to be 95% and the mortality at 50 µg/mL turned out to be 100%. Besides, in [9], the mortality at 5 µg/mL turned out to be 85%, the mortality at 10 µg/mL is 100% and the mortality at 20 µg/mL was 100%.
